Results as given in patent US20250244419A1, “INFUSION DEVICE FOR THE PREPARATION AND DELIVERY OF MRI PROBES” (The United States of America, as represented by the …, priority 2022, published 2025).

Assay: Relaxation dynamics of hyperpolarized [1-13C]pyruvate (build-up time Tb, T1)
Type: physicochemical
Conditions: for corresponding T1 value: same conditions as build-up
Text: In addition, the relaxation dynamics of the [1-^13C]pyruvate were also studied.
In addition, relaxation dynamics at earth field and 1.8 T are about the same as a non-fluorinated SABRE catalyst T1=28.9±1.6 s and 66.5±7 s, respectively.
In addition, relaxation dynamics at earth field and 1.8 T are about the same as a non-fluorinated SABRE catalyst T1=9.0±1.9 s and 16.0±1.4 s, respectively.

[1] = NFBME / deuterated methanol mixture, catalyst of Example 4
[2] = methanol, catalyst of Example 4, DMSO co-ligand

## C[13C](=O)C(=O)O [[1-^13C]pyruvate, Sodium [1-^13C]-pyruvate]
[1]
  T1 at 1.8 T: 16.0 ± 1.4 s
  T1 at earth field: 9.0 ± 1.9 s
  corresponding T1 value: 11.3 ± 1.3 s
[2]
  T1 at 1.8 T: 66.5 ± 7 s
  T1 at earth field: 28.9 ± 1.6 s
  corresponding T1 value: 16.1 ± 0.9 s
